Measurements reported in US5349127A, “Expression of herbicide metabolizing cytochromes P450” (priority 1992, dated 1994).

Legend:
[1] = system: S. lividans pCAO200SU1#12; experiment: Sulfonylurea metabolism by washed cell suspension (Examples 6-9); format: in vitro ADME, Streptomyces lividans
[2] = system: S. griseolus ATCC 11796 induced with 10001; experiment: Sulfonylurea metabolism by washed cell suspension (Examples 5-9); format: in vitro ADME, Streptomyces griseolus
[3] = system: S. lividans pCAO200; experiment: Sulfonylurea metabolism by washed cell suspension (Examples 6-9); format: in vitro ADME, Streptomyces lividans
[4] = system: S. lividans transformed with pCAO400; experiment: Metabolism of 10001 in growing culture, HPLC of supernatant (Example 4); format: in vitro ADME, Streptomyces lividans; conditions: 0.12 mg/ml 10001 in culture
Description: (§1) Herbicides and their metabolites are measured by HPLC as described by Romesser et al., BBRC 140: 650-659 (1986), herein incorporated by reference, except that 0.1% H3 PO4 is used in both solvents. Chromatographic identity and quantitation of the herbicides and their resulting metabolites is determined by comparing them chromatographically with authentic standard compounds. Identity of the resulting metabolites is also confirmed by UV spectroscopy.
(§2) Separate cultures (50 ml) inoculated with S. lividans C37, S. lividans transformed with pCAO400 or S. lividans transformed with pCAO401 in sporulation broth containing 0.12 mg/ml of 10001 were grown with shaking at 30° C. Aliquots (1.5 ml) of each culture were removed at 24, 32, 48 and 56 hours after inoculation and the supernatant of each aliquot was analyzed by HPLC for its concentration of 10001 and its metabolites 10002 or 10003.

[5] = system: S. lividans transformed with pCAO401; experiment: as above; format: in vitro ADME, Streptomyces lividans; conditions: 0.12 mg/ml 10001 in culture
Description: as §1, §2

[6] = system: S. griseus PH3817; experiment: Metabolism of 10001 by strains transformed with pCS325 (Example 15); format: in vitro ADME, Streptomyces griseus; conditions: substrate 10001
Description: (§3) S. griseolus PH2003, S. griseus PH4001, S. ambofaciens PH4002, and S. lividans JI1326 were transformed with the plasmid pPAT108. The transformed S. griseolus strain, PH3826, was cultured for 24 hours in 150 mls of sporulation broth with 5 ug/ml thiostrepton. The transformed S. griseus strain, PH3832, and the transformed S. ambofaciens strain, PH3834, were cultured for 24 hours in 150 mls of trypticase soy broth with 5 ug/ml thiostrepton. The transformed S. lividans strain, PH3822, was similarly cultured in 150 mls of YEME broth with 5 ug/ml thiostrepton. Three hours before harvesting the cells, 50 mls of fresh medium of the same type with 5 ug/ml thiostrepton was added to each culture. The cells from each of the cultures were harvested by centrifugation, washed twice with 50 mMMOPS, pH7.2 and resuspended in five cell volumes of MOPS containing 0.2% glucose and 120 ug/ml of the sulfonylurea 10001. The cell suspensions were incubated at 30° C. with shaking and aliquots were removed at 0.5, 1, 2 and 4 hours. The supernatant of each aliquot was analyzed by HPLC and the concentration of the sulfonylurea compound 10001 and its metabolites 10002 and 10003 were determined.
S. griseolus PH2003, S. griseus PH4001, S. ambofaciens PH4002, and S. lividans JI1326 were transformed with the plasmid pCS325. Cells of the transformed strains of S. griseolus PH3809, S. griseus PH3817, S. ambofaciens PH3818, and S. lividans PH3816, were grown and treated as described in Example 14, and the concentrations of the sulfonylurea compound 10001 and its metabolites 10002 and 10003 were determined.

[7] = system: S. griseolus PH3826; experiment: Metabolism of 10001 by strains transformed with pPAT108 (Example 14); format: in vitro ADME, Streptomyces griseolus; conditions: substrate 10001 120 ug/ml
Description: as §3

[8] = system: S. ambofaciens PH3834; experiment: as above; format: in vitro ADME, Streptomyces ambofaciens; conditions: substrate 10001 120 ug/ml
Description: as §3

[9] = system: S. lividans PH3822; experiment: as above; format: in vitro ADME, Streptomyces lividans; conditions: substrate 10001 120 ug/ml
Description: as §3

SMILES | concentration in supernatant ([4]; 0 h) [µM] | concentration in supernatant ([4]; 24 h) [µM] | concentration in supernatant ([4]; 32 h) [µM] | concentration in supernatant ([4]; 48 h) [µM] | concentration in supernatant ([4]; 56 h) [µM] | concentration in supernatant ([5]; 0 h) [µM] | concentration in supernatant ([5]; 24 h) [µM] | concentration in supernatant ([5]; 32 h) [µM] | concentration in supernatant ([5]; 48 h) [µM] | concentration in supernatant ([5]; 56 h) [µM] | concentration in supernatant ([6]; 0.5 h) [µM] | concentration in supernatant ([6]; 1.0 h) [µM] | concentration in supernatant ([6]; 2.0 h) [µM] | concentration in supernatant ([6]; 4.0 h) [µM] | concentration in supernatant ([1]; substrate 10001, 4 h) [µM] | concentration in supernatant ([1]; substrate 10001, 6 h) [µM] | concentration in supernatant ([7]; 0.5 h) [µM] | concentration in supernatant ([7]; 1.0 h) [µM] | concentration in supernatant ([7]; 2.0 h) [µM] | concentration in supernatant ([7]; 4.0 h) [µM] | also measured
COC(=O)c1ccccc1S(=O)(=O)NC(=O)Nc1nc(C)cc(C)n1 [compound 10010, N-[(4,6-dimethylpyrimidin-2-yl)aminocarbonyl]-2-methoxycarbonylbenzenesulfonamide] |  |  |  |  |  |  |  |  |  |  |  |  |  |  |  |  |  |  |  |  | concentration in supernatant ([1]; substrate 10010, 2 h): 90 µM; concentration in supernatant ([1]; substrate 10010, 4 h): 85 µM; concentration in supernatant ([1]; substrate 10010, 6 h): 80 µM; concentration in supernatant ([2]; substrate 10010, 2 h): 40 µM; concentration in supernatant ([2]; substrate 10010, 4 h): 8 µM; concentration in supernatant ([2]; substrate 10010, 6 h): 4 µM; concentration in supernatant ([3]; substrate 10010, 2 h): 90 µM; concentration in supernatant ([3]; substrate 10010, 4 h): 89 µM; concentration in supernatant ([3]; substrate 10010, 6 h): 89 µM
COc1cc(Cl)nc(NC(=O)NS(=O)(=O)c2ccccc2C(=O)O)n1 [compound 10003, N-[(4-chloro-6-methoxy-pyrimidin-2-yol)aminocarbonyl]-2-carboxybenzenesulfonamide] | 0 | 16 | 22 | 28 | 29 | 0 | 26 | 36 | 46 | 48 | 3 | 7 | 16 | 23 | 4 | 5 | 22 | 58 | 97 | 107 | concentration in supernatant ([1]; substrate 10001, 2 h): 2 µM; concentration in supernatant ([2]; substrate 10001, 2 h): 76 µM; concentration in supernatant ([2]; substrate 10001, 4 h): 128 µM; concentration in supernatant ([2]; substrate 10001, 6 h): 142 µM; concentration in supernatant ([8]; 0.5 h): 1 µM; concentration in supernatant ([8]; 1.0 h): 6 µM; concentration in supernatant ([8]; 2.0 h): 14 µM; concentration in supernatant ([8]; 4.0 h): 33 µM; concentration in supernatant ([9]; 0.5 h): 1 µM; concentration in supernatant ([9]; 1.0 h): 3 µM; concentration in supernatant ([9]; 2.0 h): 5 µM; concentration in supernatant ([9]; 4.0 h): 15 µM; concentration in supernatant ([3]; substrate 10001, 2 h): 1 µM; concentration in supernatant ([3]; substrate 10001, 4 h): 1 µM; concentration in supernatant ([3]; substrate 10001, 6 h): 2 µM
CCOC(=O)c1ccccc1S(=O)(=O)NC(=O)Nc1nc(O)cc(Cl)n1 [compound 10002, N-[(4-chloro-6-hydroxy-pyrimidin-2-yl)aminocarbonyl]-2-ethoxycarbonylbenzenesulfonamide] | 0 | 17 | 25 | 39 | 47 | 0 | 32 | 44 | 63 | 71 | 37 | 73 | 167 | 220 | 4 | 6 | 41 | 101 | 171 | 189 | concentration in supernatant ([1]; substrate 10001, 2 h): 2 µM; concentration in supernatant ([8]; 0.5 h): 6 µM; concentration in supernatant ([8]; 1.0 h): 11 µM; concentration in supernatant ([8]; 2.0 h): 27 µM; concentration in supernatant ([8]; 4.0 h): 64 µM; concentration in supernatant ([9]; 0.5 h): 2 µM; concentration in supernatant ([9]; 1.0 h): 5 µM; concentration in supernatant ([9]; 2.0 h): 10 µM; concentration in supernatant ([9]; 4.0 h): 25 µM; concentration in supernatant ([3]; substrate 10001, 2 h): 2 µM; concentration in supernatant ([3]; substrate 10001, 4 h): 1 µM; concentration in supernatant ([3]; substrate 10001, 6 h): 2 µM
CCOC(=O)c1ccccc1S(=O)(=O)NC(=O)Nc1nc(Cl)cc(OC)n1 [compound 10001, N-[(4-chloro-6-methoxy-pyrimidin-2-yl)aminocarbonyl]-2-ethoxycarbonylbenzenesulfonamide] | 300 | 269 | 240 | 184 | 137 | 284 | 230 | 203 | 123 | 105 | 226 | 181 | 69 | 0 | 276 | 276 | 222 | 137 | 19 | 0 | concentration in supernatant ([2]; substrate 10001, 2 h): 220 µM; concentration in supernatant ([2]; substrate 10001, 4 h): 36 µM; concentration in supernatant ([2]; substrate 10001, 6 h): 3 µM; concentration in supernatant ([8]; 1.0 h): 278 µM; concentration in supernatant ([8]; 2.0 h): 250 µM; concentration in supernatant ([8]; 4.0 h): 191 µM; concentration in supernatant ([9]; 0.5 h): 294 µM; concentration in supernatant ([9]; 1.0 h): 284 µM; concentration in supernatant ([9]; 2.0 h): 262 µM; concentration in supernatant ([9]; 4.0 h): 232 µM; concentration in supernatant ([3]; substrate 10001, 2 h): 301 µM; concentration in supernatant ([3]; substrate 10001, 4 h): 287 µM; concentration in supernatant ([3]; substrate 10001, 6 h): 313 µM
